# Reference: patent publication US20170016875A1, “ANISOTROPIC MUSCULAR TISSUE DEVICES WITH INTEGRATED ELECTRICAL FORCE READOUTS” (President and Fellows of Harvard College, priority 2014, published 2017)
# Test system: neonatal rat ventricular myocytes (NRVM)
# Experiment: spontaneous beating of NRVM muscle tissue layer on cantilever device, resistance readout
# Format: cell-based
# Conditions: after addition of 10 μM isoproterenol; NRVM muscle tissue layer in incubator, resistance versus time (FIG. 12B)
# Description: After placement of the wells, neonatal rat ventricular myocytes (NRVM) were seeded at a concentration of 0.3 Mio cells per ml medium, and the contraction of the resulting muscle tissue layers was tested on day 4-5 after seeding. Prior to testing, the cantilevers were released by lowering the sample temperature to room temperature to dissolve the […] sacrificial layer, meaning that the flexible substrate cantilevers were released from the underlying rigid glass substrate after development and growth of the tissue.
smiles,measurement,value
CC(C)NCC(O)c1ccc(O)c(O)c1 (stereo not shown) [isoproterenol],spontaneous beating frequency of the cells,significantly increased
